Test results from patent US6756362B2, “Methods and compositions based on inhibition of cell invasion and fibrosis by anionic polymers” (priority 1991, dated 2004).

What was measured:
PC12 cells = assay: PC12 neurite outgrowth assay; assay type: cell-based; conditions: NGF-primed PC12 cells; scored 2 days later
Procedure: (§1) Cell lines. Murine 3T3 fibroblast (NIH), rat C6 glioma (Paganetti et al., 1988, J. Cell Biol. 107:2281) and MCG-28 young immortalized mouse astrocyte (a murine neonatal astrocyte line immortalized with SV-40) were grown in medium composed of Dulbecco's modified Eagle medium (DMEM), 10% fetal calf serum (Gibco Laboratories), and penicillin G/streptomycin (100 units/ml, 100 μg/ml respectively, Gibco Laboratories). For the stripe assay, confluent plates were disaggregated with 0.05% trypsin, 0.53 mM EDTA (Gibco Laboratories) and seeded at 200,000 cells/ml (3 ml/plate). For the cell adhesion assays, confluent cultures were disaggregated with 0.03% EDTA and plated in a 96-well microtiter plate at 20,000-100,000 cells per well. PC12 cells, a pheochromocytoma cell line (Green L. A. & Tischler A. S., 1976, Proc. Natl. Acad. Sci. U.S.A. 73:2424), were grown in medium containing Roswell Park Memorial Institute (RPMI) medium 1640 (Gibco Laboratories), 10% horse serum, 5% fetal calf serum (FCS), and penicillin G/streptomycin (100 units/ml, 100 μg/ml respectively, Gibco Laboratories). The cells were disaggregated with 0.03% EDTA and plated in a 96-well microtiter plate at 3,000 cells per well.
PC12 cells were primed with 20 ng/ml NGF for 8 days, collected with 0.03% EDTA in PBS and plated in precoated 96-well microtiter plates at 3,000 cells/well. The microtiter plates were precoated with poly-L-lysine and blocked with adhesion medium (1% BSA in RPMI) for 20 min prior to addition of cells. The cells were grown in adhesion medium supplemented with 20 ng/ml NGF. The cells were allowed to attach for 2 hr prior to the addition of the test compounds (Akeson and Warren, 1986, Exp. Cell Res. 162:347-362).
PC-12 cells primed with NGF were plated in 96-well plates. Test solutions were added to the wells and the cells were scored 2 days later as (+) if neurites of at least two cell bodies diameter in length were present on the majority of the cells, and (−) if no or only short processes were present. […] The compounds tested included GAGs (heparin, dermatan sulfate, chondroitin sulfate A, keratan sulfate and hyaluronic acid), sulfated carbohydrate polymers (dextran sulfate and pentosan polysulfate), and another polyanionic polymer (e.g., alginic acid).

[1] = tested on: epidural fibrosis at laminectomy site, Lewis inbred rats; assay: Epidural fibrosis after lumbar laminectomy in rats, gross evaluation; assay type: in vivo, rat; parameters: TOTAL SCORE / TOTAL SCORE 2 WEEKS: scale not given here; conditions: for inhibition of scar formation (in words): 20 mg/ml, versus buffer control; for TOTAL SCORE: Table 5, agent 20 mg/ml
Procedure: Epidural fibrosis was investigated after lumbar laminectomy in rats. In this model, a laminectomy was performed at the lumbar 3 and 5 vertebrae and then the test agent was applied to the laminectomy site. Subsequently, the laminectomy sites were examined for fibrosis by gross dissection or by histological analysis.
Laminectomies (described below) were performed at lumbar vertebrae L3 and L5 to provide auto-controls within each animal. Segments of GELFOAM® (Upjohn) soaked with experimental or control solutions were inserted into the laminectomy site. The soared GELFOAM® fragments were prepared and coded 24 hours beforehand. The GELFOAM® segments were soaked in solutions of dextran sulfate in calcium/magnesium-free phosphate buffered saline (CMF-PBS), dextran in CMF-PBS, or CMF-PBS alone. In some laminectomy sites, the GELFOAM® fragments were omitted, in order to serve as sham operations. Subsequently, the evaluation by gross dissection was done without knowledge of which solutions had been placed in which laminectomy site. Thus, the experiments were double-blind.
Lewis inbred rats were anesthetized with 4% chloral hydrate (34 mg/100 g body weight). The dorsal skin was incised and the paraspinal muscles were separated from the spinous processes of lumbar vertebrae L2 through L6. The spinous processes of L3 and L5 were removed with a rongeurs; then the vertebral lamina was removed with a micro-rongeurs creating a rectangular laminectomy defect 4×2 mm in size. After bleeding was stopped, a GELFOAM® segment was placed into the laminectomy site according to a randomized protocol. The overlying paraspinal muscles were closed over the site by suturing the superficial fascia together with resorbable 6-0 PDS II (Ethicon). The skin incision was closed with wound clips.
The animals were kept for two weeks prior to gross evaluation. At that time, the rats were anesthetized with 4% chloral hydrate and the wound was reopened by incising, the skin and separating the paraspinal muscles. The quality and quantity of scar tissue above the laminectomy site, the appearance of the GELFOAM® and the extent of new bone growth was evaluated by visual and tactile observation during sharp dissection. After the gross evaluation was complete, the rats were euthanized by anesthesia overdose.
All gross evaluations were made prior to breaking the treatment code, but the observations have been tabulated and presented below according to treatment group.

Sulfur content = assay type: physicochemical; conditions: by weight
[2] = tested on: rat meningeal fibroblasts (RMF); assay: Colorimetric cell adhesion assay, RMF; assay type: cell-based; conditions: RMF on PLL; 4 hr incubation; FIG. 7
Procedure: Primary Cell Cultures. Primary cultures of rat meningeal fibroblasts (RMF) were obtained from P-3 rat pups. The tissue was removed from the animals and transferred to Leibovitz's L-15 with L-glutamine medium. The tissue was then cut into small pieces with a scalpel blade, enzymatically dissociated with 0.25% trypsin in Ca^2+/Mg^2+ free Hank's balanced salt solution (CMF-HBSS, Gibco Laboratories) for 20 minutes at 37° C., and mechanically triturated. The cells were rinsed with DMEM plus 10% FCS, concentrated by centrifugation and subsequently diluted in DMEM with 10% FCS for plating at 5.0×10^6 cells per 75 cm^2 flask. Adult rat sciatic nerve fibroblasts (RSF) were obtained by explantation of 1 mm sections of adult rat sciatic nerve.
(§2) Microtiter plates were precoated with poly-L-lysine and blocked with 1% BSA in DMEM for 20 min prior to addition of cells. The cells were plated on the precoated 96-well plates and test compounds were added to the culture medium. Following 4-24 hr incubation at 36° C., 5% C02, in a humidified incubator, the tetrazolium salt MTT (3-(4,5-dimethylthazol-2-yl)-2,5-diphenyl tetrazolium bromide) was added. The cultures were incubated for 2 hr to allow mitochondrial succinate dehydrogenase, found in viable cells, to […] the MTT to its formazan blue reaction product. The media was aspirated and the wells were rinsed to remove all detached cells. The formazan blue reaction product in attached cells was solubilized with 0.08 N HCl in isopropanol, and the plates were read in a microtiter plate reader (Dynatech MR4000) at 570 nm with a 630 nm reference filter. The resulting optical density readings are directly related to the number of viable cells in the well (Mosmann, T., 1983, J. Immunol. Methods 65:55-63). The samples were run in 3-6 replicates per point and the SD was less than 5%.
(§3) The adhesion of fibroblasts to PLL-coated microtiter plates in the presence of test compounds in the culture medium was evaluated using an MTT assay as described in Section 8.1.5., supra, and the number of attached cells was expressed as percent of control. The effect of 4 hr incubation in the presence of heparin, pentosan polysulfate, dextran sulfate, and dextran on adhesion of rat meningeal fibroplasts (RMF) and 3T3 cells to PLL is shown in FIG. 7.

3T3 cells = assay: Colorimetric cell adhesion assay, 3T3; assay type: cell-based, mouse; conditions: 3T3 cells on PLL; 4 hr incubation; FIG. 7
Procedure: as §1, §2, §3

Row | Substance | IC100, minimum concentration causing 100% inhibition of neurite outgrowth (PC12 cells) | inhibition of scar formation (in words) [1] | TOTAL SCORE [1] | Sulfur Content (Sulfur content) | number of attached cells compared to untreated controls [2] | number of attached cells compared to untreated controls (3T3 cells)
1 | alginate | 3.1e-06 g/mL | marginal improvement | 7.3 ± 1.9 | 0% |  | 
2 | chondroitin sulfate A | 0.0005 g/mL |  |  | 5.6% |  | 
3 | dermatan sulfate [Dermatan sulfate 90%] | 1.5e-05 g/mL |  |  | 6.0% |  | 
4 | hyaluronic acid [reference compound] | 0.0002 g/mL | no ability to inhibit scar formation | 9.3 ± 0.5 | 0.6-0.8% |  | 
5 | keratan sulfate |  |  |  | 6.4% |  | 
6 | pentosan polysulfate [reference compound] | 3.9e-07 g/mL | partial inhibition | 5.0 ± 1.0 | 16.5% | decreased | decreased
